Experimental data as given in patent publication US12350250B2, “Aggrelytes for treating ocular conditions” (The Regents of the University of Colorado, a Body Corporate, priority 2022, dated 2025).

Columns and labels:
mouse lenses = assay: Stiffness and axial strain of ex vivo mouse lenses (Example 10); design: species or system mouse (C57BL/6J); details: 1 mM, 24 hours, 100 mg load
Procedure: (§1) In this example, the lenses were dissected from the eyes of mice (C57BL/6J, 5-8 months old, Jackson Laboratories, Stock No. 000664, n=4-5) by a posterior approach and incubated without (“Control”) or with Aggrelyte-2 or Aggrelyte-2C (1 mM) for 24 hours in serum-free and phenol-red-free MEM (297 mOsm) at 37° C. Lens stiffness was measured as previously described in Baradia, H. et al., (2010) Exp. Eye Res. 91, 300-307. Briefly, the lens was placed on a flat platform with the anterior side facing up, and a load was applied to the top of the lens at 100 mg increments for mouse lenses and at 250 mg increments for human lenses. The displacement in the lens axial diameter (in μm or mm) was measured using MATLAB software developed by Dr. Adrian Glasser, UK, and plotted against the load applied. The displacement at a specific load was used to determine differences in lens stiffness between the untreated control and aggrelyte-treated lenses.
(§2) Freshly obtained human lenses (42-68 years old, n=10-12) were incubated with or without Aggrelyte-2 or Aggrelyte-2C (1 mM) for a total of 72 h in phenol red-free MEM with a change in media containing freshly dissolved aggrelytes every 24 h. One lens from each donor pair was used as the control, and the other was treated with aggrelyte. After incubation, the lens stiffness was measured as described above. Axial strain was also calculated based on the following formula: […]

human (60-62 years) lens = assay: Human lens transparency (separate study); details: data not shown
Excerpt: The reduction in stiffness was similar at 400- and 500-mg loads (FIGS. 21C and 21D, respectively).

human lenses [1] = assay: AcK-bearing proteins in WS cortical and nuclear fractions of treated human lenses (Western blot); details: 1 mM, 72 h, vs untreated controls
Procedure: For Western blotting, 10-20 μg of protein from each lens sample was used and each sample was separately processed three times and analyzed.

β-crystallin (βC) = assay: Crystallin levels in solubilized human lens proteins (Western blot), βC; format: biochemical; details: 500 μM, solubilized proteins of three human lenses
Procedure: (§3) The contents of crystalline proteins [αA-crystallin (αAC), αB-crystallin (αBC), β-crystallin (βC), and γ-crystallin (γC)] in the solubilized proteins of three human lenses treated with either Aggrelyte-2 or Aggrelyte-2C (500 μM) from Example 4 were determined by Western blot analysis as described for Example 5. Membranes were incubated with antibodies against αAC (1:14,000 dilution; Enzo Life Sciences, Catalog #ADI-SPA-221D), αBC (1:700,000 dilution; University of Iowa), βC (1:14,000 dilution; Santa Cruz Biotechnology, Catalog #sc-22745), and γC (1:7,000 dilution; Santa Cruz Biotechnology, Catalog #sc-22746). The secondary antibodies were HRP-conjugated anti-mouse IgG for αBC and HRP-conjugated […] (Cell Signaling Technology, Catalog #7074S) for αAC, βC, and γC. According to the supplier, the […] detects mostly βB1-crystallin and, to a lesser extent, βA1/3, βA2, βA4, βB2, and βB3-crystallin. The γC antibody reacts with γA, γB, γC, γD, γE, and γF-crystallin.

[2] = test system: AcK in solubilized WI protein of human lenses; assay: AcK in solubilized human lens proteins (LC-MS/MS); format: biochemical; details: 500 μM, 24 hours; for AcK level: solubilized WI protein, human lenses (55-67 years)
Procedure: Water-insoluble proteins were prepared from aged human lenses (55-67 years) as described in Example 3, and incubated with 0 or 500 μM Aggrelyte-2 or Aggrelyte-2C for 24 hours as described in Example 3. Solubilized WI protein fractions (0.5 mg/mL) and water soluble (WS) protein fractions (3 mg/mL from human lenses) were sequentially digested with enzymes as previously described (Nandi et al., 2019, Biochemistry, 58(9):1260-1274). The enzyme-digested samples were analyzed for AcK by LC-MS/MS using the standard addition method as previously described (id.) The AcK levels were calculated based on the protein input in the enzymatic digestions.

human lenses [3] = assay: Stiffness and axial strain of ex vivo human lenses (Example 10); details: 1 mM, 72 h; for lens stiffness (displacement) vs untreated controls: human lenses (42-68 years), loads of 500 mg and 1000 mg; for axial strain vs controls: human lenses, 500 mg and 1000 mg loads
Procedure: as §1, §2

γ-crystallin (γC) = assay: Crystallin levels in solubilized human lens proteins (Western blot), γC; format: biochemical; details: 500 μM, solubilized proteins of three human lenses
Procedure: as §3

[4] = test system: acetyllysine (AcK)-bearing proteins in solubilized human lens WI proteins; assay: AcK-bearing proteins in solubilized human lens proteins (Western blot densitometry); format: biochemical; details: 500 μM, solubilized proteins of ten human lenses (65 to 75 years), vs Control
Excerpt: Chemiluminescence was detected using an Enhanced Chemiluminescence Detection Kit (Thermo Scientific). Then the membrane was stained with Ponceau-S to visualize the proteins and normalize the detected AcK-bearing protein to the total protein load via densitometry.

[5] = Stability of aggrelytes under physiological conditions (1H-NMR); format: physicochemical; details: 50 mM phosphate buffer, pH 7.4, 37° C.; for degraded during 3-day incubation: 3 days; for degraded during 7-day incubation: 7 days
Procedure: Aggrelyte-2 (N,S-diacetyl-L-cysteine methyl ester; Astatech Catalog #D95910) and Aggrelyte-2C (N-acetyl cysteine methyl ester; Sigma Aldrich Catalog #01042) (2 mg each) were incubated in 1 mL of 50 mM phosphate buffer, pH 7.4, at 37° C. Aliquots were withdrawn immediately after incubation (Day 0) and after 1, 3, and 7 days. Stability of the aggrelytes was tested using ^1H-NMR (in DMSO-d6) spectroscopy. The NMR peak integration values for the S-acetyl or N-acetyl cysteine methyl proton were compared with the cysteine methine proton.

[6] = test system: protein thiols of solubilized human lens WI protein; assay: Protein thiol content in solubilized protein from WI protein of aged lenses; format: biochemical; details: 500 μM aggrelyte, lenses 58 to 69 years old; for thiol content: 10 μg protein, GSH standard
Procedure: Protein thiol content in the solubilized protein from WI protein from aged lenses (58 to 69 years old) was evaluated. Immediately after treatment with aggrelytes as described in the foregoing examples, 0.15 mL samples were filtered through 10 kDa cutoff centrifugal filters at 4° C. Centrifugal filtration was repeated twice by adding 0.4 mL of 50 mM N2-bubbled sodium phosphate buffer to the retentate each time. Ten micrograms of protein from the final retentate was used for thiol content estimation using a Thiol Quantification Assay Kit (Abcam, Cambridge, MA) using reduced GSH as the standard.

Structure (SMILES)	lens stiffness vs untreated control lenses (mouse lenses; 6-month-old mouse lenses)	axial strain vs controls (mouse lenses; mouse lenses)	displacement, % greater than that by Aggrelyte-2C (mouse lenses; mouse lenses, not significantly greater) [%]	lens transparency compared to vehicle-treated lenses (human (60-62 years) lens)	AcK levels, cortical protein fraction (Western blot) (human lenses [1])	AcK levels, nuclear protein fraction (Western blot) (human lenses [1])	levels of βC vs Controls (β-crystallin (βC))	AcK levels, fold increase compared to Aggrelyte-2C-treated samples ([2]; combined mean values) [fold]	AcK levels, fold increase compared to untreated controls ([2]; combined mean values) [fold]	AcK level [2]	lens stiffness (displacement) vs untreated controls (human lenses [3])	axial strain vs controls (human lenses [3])	levels of γC vs Controls (γ-crystallin (γC))	amount of AcK-bearing proteins (Western blot densitometry) [4]	degraded during 3-day incubation [5] [%]	degraded during 7-day incubation [5] [%]	thiol content [6] [µM]	thiol content, fold higher than in the untreated controls [6] [fold]	thiol content, fold increase over Aggrelyte-2-treated samples [6] [fold]
COC(=O)[C@H](CSC(C)=O)NC(C)=O [Aggrelyte-2, N,S-diacetyl-L-cysteine methyl ester]	significantly (p<0.05) reduced the stiffness	significantly (p<0.05) reduced the axial strain	8.7	did not reduce or otherwise change	significantly increases	significantly increases	slightly but not significantly higher	2.4	1.9	1.5-2.1 nmol/mg protein	significantly (p<0.01) reduced lens stiffness	significantly (p<0.01) reduced the axial strain	slightly but not significantly higher	significantly (p<0.001) increased	30	42	0.3 to 0.7	1.9	–
COC(=O)[C@H](CS)NC(C)=O [Aggrelyte-2C, N-acetyl-L-cysteine methyl ester]	–	did not have a significant effect	–	did not reduce or otherwise change	not statistically different	not statistically different	no effect	–	–	0.6-0.9 nmol/mg protein	did not demonstrate significant effects on displacement	did not have a significant effect	no effect	did not increase the AcK levels	21	37	1.1 to 1.6	4.9	2.6
